From PubChem BioAssay AID1053164 (Broad Institute, 2014)
Several values for one entry are separate records, joined by “and”; a condition that tells them apart may be missing. Equal entries are not always repeated. Activity calls are given as the source filed them. The rule behind the calls is not given here.

biological target: Dihydrolipoyl dehydrogenase (Mycobacterium tuberculosis (strain ATCC 25618 / H37Rv)) (UniProt P9WHH9); experiment: Purified Mycobacterium tuberculosis Lpd inhibitors, DTNB colorimetric coupled assay, confirmatory IC50 (AID 1053164); conditions: Purified M. tb Lpd, DTNB colorimetric plate reader

Row | Compound | IC50
1 | CO[C@H]1CC[C@H]2CC(=O)N(C)CCN(C)C(=O)c3cccc(C#N)c3OC[C@@H]1O2 | > 100 µM (inactive)
2 | CO[C@H]1CC[C@H]2CCN(C)C(=O)[C@@H](C(C)C)N(C)C(=O)c3cccc(C#N)c3OC[C@@H]1O2 | > 100 µM (inactive)
3 | CO[C@H]1CC[C@H]2CCN(C)C(=O)CN(C)C(=O)c3cccc(C#N)c3OC[C@@H]1O2 | > 100 µM (inactive)
4 | CO[C@H]1CC[C@H]2CCN(C)C(=O)CCCN(C)C(=O)c3cc(Cl)cnc3OC[C@@H]1O2 | > 100 µM (inactive)
5 | CCCC[C@@H]1C(=O)N(C)CC[C@@H]2CC[C@H](OC)[C@H](COc3c(C#N)cccc3C(=O)N1C)O2 | > 100 µM (inactive)
6 | CO[C@H]1CC[C@H]2CCN(C)C(=O)[C@@H](C)N(C)C(=O)c3cccc(C#N)c3OC[C@@H]1O2 | 6 µM and > 100 µM (inactive)
7 | CO[C@H]1CC[C@H]2CCN(C)C(=O)[C@@H](C)N(C)C(=O)c3cc(Cl)cnc3OC[C@@H]1O2 | 25 µM
8 | CO[C@H]1CC[C@H]2CCN(C)C(=O)CCN(C)C(=O)c3cccc(C#N)c3OC[C@@H]1O2 | > 100 µM (inactive)
9 | CO[C@H]1CC[C@H]2CCN(C)C(=O)CCCN(C)C(=O)c3cccc(C#N)c3OC[C@@H]1O2 | > 100 µM (inactive)
10 | CO[C@H]1CC[C@H]2CCN(C)C(=O)CCCN(C)C(=O)c3cccnc3OC[C@@H]1O2 | > 100 µM (inactive)
11 | CO[C@H]1CC[C@H]2CCN(C)C(=O)[C@@H](c3ccccc3)N(C)C(=O)c3cccc(C#N)c3OC[C@@H]1O2 | > 100 µM (inactive)
12 | CO[C@H]1CC[C@H]2CCN(C)C(=O)[C@@H](C)N(C)C(=O)c3ccc(F)nc3OC[C@@H]1O2 | > 100 µM (inactive)
13 | CO[C@H]1CC[C@H]2CCN(C)C(=O)[C@@H](C)N(C)C(=O)c3c(C(F)(F)F)ccnc3OC[C@@H]1O2 | > 100 µM (inactive)
14 | CO[C@H]1CC[C@H]2CCN(C)C(=O)[C@@H](C)N(C)C(=O)c3cccnc3OC[C@@H]1O2 | > 100 µM (inactive)
15 | CO[C@H]1CC[C@H]2CCN(C)C(=O)[C@H]3CCCN3C(=O)c3cccc(C#N)c3OC[C@@H]1O2 | > 100 µM (inactive)
16 | CO[C@H]1CC[C@H]2CCN(C)C(=O)[C@@H](Cc3ccccc3)N(C)C(=O)c3cccc(C#N)c3OC[C@@H]1O2 | > 100 µM (inactive)
